Measured values as given in patent publication US20090186900A1, “COMPOUND” (priority 2006, published 2009).

Legend:
[1] = molecular target: T1, rat liver E1-STS (Rattus norvegicus, UniProt P15589); conditions: administered either orally or subcutaneously; cited from earlier work
T1 construct: from tissue; host or cells: rat liver
T1 sequence (P15589 20-577): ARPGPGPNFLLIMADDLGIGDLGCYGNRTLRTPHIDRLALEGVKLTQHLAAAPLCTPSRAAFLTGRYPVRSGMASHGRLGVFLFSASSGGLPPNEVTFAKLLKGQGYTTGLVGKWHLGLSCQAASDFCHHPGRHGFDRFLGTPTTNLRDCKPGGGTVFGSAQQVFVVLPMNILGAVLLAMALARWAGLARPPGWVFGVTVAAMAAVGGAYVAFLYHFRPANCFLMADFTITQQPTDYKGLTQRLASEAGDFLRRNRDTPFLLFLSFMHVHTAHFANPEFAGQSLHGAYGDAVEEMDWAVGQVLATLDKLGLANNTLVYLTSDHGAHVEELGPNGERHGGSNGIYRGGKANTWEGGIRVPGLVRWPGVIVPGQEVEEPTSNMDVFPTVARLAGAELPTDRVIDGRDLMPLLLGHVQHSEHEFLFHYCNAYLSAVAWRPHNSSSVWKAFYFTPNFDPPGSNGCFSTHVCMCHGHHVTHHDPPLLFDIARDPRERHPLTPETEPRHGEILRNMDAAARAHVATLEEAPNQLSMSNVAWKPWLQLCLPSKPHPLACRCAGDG

[2] = molecular target: T2, DHA-STS (Rattus norvegicus, UniProt P15589); conditions: administered either orally or subcutaneously; cited from earlier work
T2 construct: from tissue; host or cells: rat liver
T2 sequence (P15589 20-577): T1 sequence (P15589 20-577)

[3] = molecular target: T3, E1-STS (Homo sapiens, UniProt P08842); conditions: intact MCF-7 cells, at 0.1 mM; cited from earlier work
T3 construct: endogenous in cells; host or cells: MCF-7 human breast cancer cells
T3 sequence (P08842 22-583): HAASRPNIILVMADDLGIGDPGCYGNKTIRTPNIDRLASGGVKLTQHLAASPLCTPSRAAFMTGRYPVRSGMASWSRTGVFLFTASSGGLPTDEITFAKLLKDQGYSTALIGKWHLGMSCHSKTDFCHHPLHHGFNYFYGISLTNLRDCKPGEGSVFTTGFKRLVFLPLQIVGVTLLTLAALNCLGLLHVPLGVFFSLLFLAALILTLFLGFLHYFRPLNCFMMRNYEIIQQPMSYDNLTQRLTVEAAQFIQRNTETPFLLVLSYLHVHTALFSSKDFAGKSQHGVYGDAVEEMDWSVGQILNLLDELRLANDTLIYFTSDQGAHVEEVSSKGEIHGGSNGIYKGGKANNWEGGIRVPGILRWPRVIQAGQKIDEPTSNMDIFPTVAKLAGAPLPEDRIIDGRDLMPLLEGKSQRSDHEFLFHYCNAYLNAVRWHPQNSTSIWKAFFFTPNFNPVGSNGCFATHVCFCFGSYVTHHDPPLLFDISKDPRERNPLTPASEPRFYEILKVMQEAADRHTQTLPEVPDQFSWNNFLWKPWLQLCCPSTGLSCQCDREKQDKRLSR

[4] = system: rats; conditions: cited from earlier work

| Compound | melting point | further results |
| --- | --- | --- |
| C[C@]12CC[C@@H]3c4ccc(OS(N)(=O)=O)cc4CC[C@H]3[C@@H]1CCC2=O [EMATE, oestrone-3-sulphamate] | – | inhibition of rat liver E1-STS activity [1]: 99%; inhibition of rat liver DHA-STS activity [2]: 99%; inhibition of E1-STS activity [3]: more than 99%; oral uterotrophic activity relative to oestradiol [4]: 100 times |
| CC(=O)c1ccc(Oc2ccc(O)cc2)cc1 [Compound 129, 1-(4-(4-Hydroxyphenoxy)phenyl)ethanone] | 159 to 161 °C | – |
| CCc1cc(Oc2ccc(C(C)=O)cc2)ccc1OC [Compound 140, 1-(4-(3-Ethyl-4-methoxyphenoxy)phenyl)ethanone] | 53 to 56 °C | – |
| O=C(CCC(=O)c1ccc(Oc2ccc(O)cc2)cc1)NCc1cccnc1 [Compound 118, 4-(4-(4-Hydroxyphenoxy)phenyl)-4-oxo-N-((pyridin-3-yl)methyl)butanamide] | > 191 °C (dec.) | – |
| CCc1cc(-c2ccc(C(C)=O)cc2)ccc1OC [Compound 38, 1-(3′-Ethyl-4′-methoxy-biphenyl-4-yl)-ethanone] | 69 to 72 °C | – |
| CCc1cc(-c2ccc(-c3cc(CCC(=O)NCc4cccnc4)[nH]n3)cc2)ccc1O [Compound 66, 3-[5-(3′-Ethyl-4′-hydroxy-biphenyl-4-yl)-2H-pyrazol-3-yl]-N-pyridin-3-ylmethyl-propionamide] | 210 to 214 °C | – |
| CCc1cc(-c2ccc(C(=O)CCC(=O)NCCO)cc2)ccc1O [Compound 37, 4-(3′-Ethyl-4′-hydroxy-biphenyl)-4-oxo-N-(2-hydroxyethyl)-butyramide] | > 110 °C (dec.) | – |
| CC(=O)c1ccc(Oc2cccnc2)cc1 [Compound 135, 1-(4-(Pyridin-3-yloxy)phenyl)ethanone] | 45 to 50 °C | – |

More lines, main results first:

| melting point | Compound | further results |
| --- | --- | --- |
| 167 to 170 °C | CCc1cc(-c2ccc(-c3ccn(C)n3)cc2)ccc1OC [Compound 45, 3-(3′-Ethyl-4′-methoxy-biphenyl-4-yl)-1-methyl-1H-pyrazole] | – |
| 164 to 168 °C | CCc1cc(-c2ccc(-c3cc[nH]n3)cc2)ccc1OC [Compound 44, 3-(3′-Ethyl-4′-methoxy-biphenyl-4-yl)-1H-pyrazole] | – |
| 97 to 100 °C | CCc1cc(-c2ccc(-c3ccnn3C)cc2)ccc1OC [Compound 46, 5-(3′-Ethyl-4′-methoxy-biphenyl-4-yl)-1-methyl-1H-pyrazole] | – |
| 116 to 120 °C | CCc1cc(-c2ccc(-c3ccn(CC(=O)OC)n3)cc2)ccc1OC [Compound 48, [3-(3′-Ethyl-4′-methoxy-biphenyl-4-yl)-pyrazol-1-yl]-acetic Acid Methyl Ester] | – |
